Results on four molecules are retold here after US20060276400A1, “Modulation of cholesteryl ester transfer protein (CETP) activity” (priority 2005, published 2006).

One test has as its system human CETP. The test is described as follows: ELISA anti-huCETP antibody titers in sera of immunized human CETP transgenic mice. As to conditions: in vivo; for average anti-huCETP titer: sc. A general note: In an ELISA, binding on a coated surface is turned into a signal by an enzyme label.
The subject of a further test is serum CETP activity. The test is described as follows: Serum CETP activity (fluorescent cholesteryl ester transfer assay) in immunized human CETP transgenic mice. The conditions noted are these: in vivo.
Test [1] concerns serum HDL-cholesterol (HDLc). More on the design: species or system human CETP transgenic mice. The conditions noted are these: in vivo.
In test [2] the test system is endogenous serum CETP activity. Briefly: Change in endogenous serum CETP activity in rabbits immunized with full-length human CETP. The conditions noted are these: week 12 post-injection vs week -1 pre-injection, 0.2 mg huCETP in CFA, boosters in IFA; for increase in CETP activity following vaccination: Rabbit #1.

“CQYIKANSKFIGITEFGFPEHLLVDFLQSLS [CETi-1, reference compound]”: the “average anti-huCETP titer” value in the test on human CETP is listed as roughly 0.750 OD. Also, the “effect on serum CETP activity (in words)” value in the test on serum CETP activity was “appeared to elevate CETP activity”. The “change in serum HDLc levels in contrast to control group (in words)” value in test [1] was “reduction”.
With “CSKGTSHEAGIVCRITKPALLQYIKANSKFIGITE [CETi-2]”, in the test with human CETP, the “average anti-huCETP titer” value is on record as roughly 0.750 OD. Besides, the “effect on serum CETP activity (in words)” value in the test with serum CETP activity is on record as “no effect on average”. In test [1], the “change in serum HDLc levels in contrast to control group (in words)” value was “reduction”.
In the case of “SKGTSHEAGIVCRITKPALLQYIKANSKFIGITE [CETi-2.1]”, the “anti-huCETP titer lower than those of the CETi-1 and CETi-2 groups” value with human CETP is listed as “approx. 30%”.

B1: human CETP: full-length human CETP (SEQ ID NO:7) purified from conditioned media of a huCETP transformed CHO cell line (protein)
chain: CSKGTSHEAGIVCRITKPALLVLNHETAKVIQTAFQRASYPDITGEKAMMLLGQVKYGLHNIQISHLSIASSQVELVEAKSIDVSIQNVSVVFKGTLKYGYTTAWWLGIDQSIDFEIDSAIDLQINTQLTCDSGRVRTDAPDCYLSFHKLLLHLQGEREPGWIKQLFTNFISFTLKLVLKGQICKEINVISNIMADFVQTRAASILSDGDIGVDISLTGDPVITASYLESHHKGHFIYKNVSEDLPLPTFSPTLLGDSRMLYFWFSERVFHSLAKVAFQDGRLMLSLMGDEFKAVLETWGFNTNQEIFQEVVGGFPSQAQVTVHCLKMPKISCQNKGVVVNSSVMVKFLFPRPDQQHSVAYTFEEDIVTTVQASYSKKKLFLSLLDFQITPKTVSNLTESSSESIQSFLQSMITAVGIPEVMSRLEVVFTALMNSKGVSLFDIINPEIITRDGFLLLQMDFGFPEHLLVDFLQSLS
modifications: Human; PEPTIDE (1)..(476) Amino aid sequence of full-length mature human CETP protein
With B1, the “increase in CETP activity following vaccination” value in test [2] is “+85%”; in test [2] (listed as whole human CETP), 85%. In addition, the “decrease in CETP activity following vaccination” value in test [2] (Rabbit #11, listed as whole human CETP) is recorded as 77%.
